Among the data in paper PMC6891331, “Virescenosides from the Holothurian-Associated Fungus Acremonium striatisporum Kmm 4401” (Marine Drugs, 2019) are IC50 values, retold here.

The target in this experiment is urease (Canavalia ensiformis, UniProt P07374). Put plainly: urease inhibition, ammonia production by indophenol method. Type of experiment: biochemical.
urease, sequence (P07374 whole entry, looked up): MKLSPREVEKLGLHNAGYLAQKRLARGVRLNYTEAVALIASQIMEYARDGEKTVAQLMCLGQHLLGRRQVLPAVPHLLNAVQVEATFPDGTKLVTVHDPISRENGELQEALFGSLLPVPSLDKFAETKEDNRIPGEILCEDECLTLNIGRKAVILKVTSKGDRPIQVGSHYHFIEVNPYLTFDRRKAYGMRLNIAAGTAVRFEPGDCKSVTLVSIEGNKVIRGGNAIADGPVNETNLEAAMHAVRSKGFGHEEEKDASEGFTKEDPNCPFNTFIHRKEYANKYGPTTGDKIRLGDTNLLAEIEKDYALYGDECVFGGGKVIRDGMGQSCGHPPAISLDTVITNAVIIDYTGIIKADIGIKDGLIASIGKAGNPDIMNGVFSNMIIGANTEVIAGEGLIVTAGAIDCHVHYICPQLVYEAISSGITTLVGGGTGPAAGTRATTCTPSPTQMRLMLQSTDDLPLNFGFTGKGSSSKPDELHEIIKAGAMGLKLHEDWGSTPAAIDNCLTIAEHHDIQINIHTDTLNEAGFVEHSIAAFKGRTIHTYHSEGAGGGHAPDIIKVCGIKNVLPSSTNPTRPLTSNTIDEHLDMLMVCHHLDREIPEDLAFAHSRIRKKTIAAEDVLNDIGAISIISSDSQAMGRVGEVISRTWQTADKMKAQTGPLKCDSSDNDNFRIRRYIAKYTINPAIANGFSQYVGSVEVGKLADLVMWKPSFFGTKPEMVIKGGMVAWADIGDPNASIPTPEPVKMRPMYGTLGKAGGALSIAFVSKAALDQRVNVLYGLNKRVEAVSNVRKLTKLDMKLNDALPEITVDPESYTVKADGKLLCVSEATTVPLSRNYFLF
`C=CC1(C)CCC2=C(CCC3C2(C)CCC(O)C3(C)CO)C1` (stereo not drawn) [compound 15, aglycon of virescenoside B] showed an IC50 of 125 µM.

In turn, `NC(N)=S` [Thiourea, reference compound] showed an IC50 of 23 µM.

As for `C=CC1(C)CCC2C(=CCC3C2(C)CC(O)C(O)C3(C)CO)C1` (stereo not drawn) [compound 14, aglycon of virescenoside A], the IC50 is 139 µM.

By IC50 is commonly meant the concentration that inhibits the measured activity by half. A low value points to inhibition by little substance.
